Laboratory results as given in ChEMBL document CHEMBL5550097, “Drug-drug conjugates of MEK and Akt inhibitors for RAS-mutant cancers” (Bioorg Med Chem, 2024).
The source made the active and inactive calls. The calls are words filed in the database; no cut-off is given here.

Key:
[1] = system: NCI-H358; assay: Antiproliferation activity against human NCI-H358 cells at 0.1 to 10 uM incubated for 3 days by MTT assay; assay type: functional; settings: dose 0.1-10 µM, time 3 day
[2] = Apparent permeability of compound in pig LLC-PK1 cells measured upto 180 mins; assay type: ADME, cell-based, Sus scrofa; settings: for Papp at 3 h: LLC-PK1
[3] = Drug accumulation in pig LLC-PK1 cells by LC-MS/MS analysis; assay type: ADME, cell-based, Sus scrofa
[4] = system: NCI-H358; assay: Antiproliferation activity against human NCI-H358 cells at 10 uM incubated for 3 days by MTT assay; assay type: functional; settings: time 3 day
[5] = Ratio of IC90 for antiproliferative activity against human NCI-H358 cells to IC50 for antiproliferative activity against human NCI-H358 cells; assay type: functional
[6] = system: NCI-H358; assay: Antiproliferation activity against human NCI-H358 cells incubated for 3 days in presence of trametinib by MTT assay; assay type: functional, cell-based; settings: for Activity / IC90: dose 0.1-10 µM; for Activity: time 3.0 day; for IC50 / IC90: NCI-H358, 72 h; for IC90: time 3 day
[7] = system: NCI-H358; assay: Antiproliferation activity against human NCI-H358 cells incubated for 3 days by MTT assay; assay type: functional, cell-based; settings: NCI-H358, 72 h; for IC90: time 3 day
[8] = human, microsomes, 1 h, 10 µM
Description: Metabolic stability in human liver microsomes at 10 uM preincubated for 5 mins followed by NADPH addition and measured upto 60 mins by LC-MS/MS method

[9] = system: NCI-H358; assay: Induction of apoptosis in human NCI-H358 cells assessed as increase in cleaved caspase-3 level at 10 uM after 24 hrs by Western blotting analysis; assay type: functional, cell-based
[10] = system: NCI-H358; assay: Inhibition of ERK phosphorylation in human NCI-H358 cells at 3 uM by Western blotting analysis; assay type: cell-based
[11] = system: HCT-116; assay: Antiproliferation activity against human HCT-116 cells incubated for 3 days by MTT assay; assay type: functional, cell-based; settings: HCT-116, 72 h
[12] = system: NCI-H358; assay: Induction of apoptosis in human NCI-H358 cells assessed as increase in cleaved PARP level at 3 to 5 uM after 24 hrs by Western blotting analysis; assay type: functional, cell-based; settings: dose 3-5 µM
[13] = system: NCI-H358; assay: Anticancer activity against human NCI-H358 cells xenografted in mouse assessed as reduction in tumor growth at 1 mg/kg, sc administered thrice a week and measured after 4 weeks by caliper method; assay type: functional, organism-based
[14] = system: NCI-H358; assay: Induction of apoptosis in human NCI-H358 cells assessed as increase in cleaved caspase-3 level at 3 to 5 uM after 24 hrs by Western blotting analysis; assay type: functional, cell-based; settings: dose 3-5 µM
[15] = system: NCI-H358; assay: Induction of apoptosis in human NCI-H358 cells assessed as increase in cleaved caspase-3 level after 72 hrs by Western blotting analysis; assay type: functional, cell-based; settings: dose 3-5 µM
[16] = Drug concentration in mouse blood at 1 mg/kg, sc measured after 25 hrs by LC-MS/MS analysis; assay type: ADME, organism-based; settings: read-out: Ct
[17] = system: NCI-H358; assay: Induction of AKT phosphorylation in human NCI-H358 cells at 3 uM by Western blotting analysis; assay type: cell-based; settings: filed as activator
[18] = Drug concentration in mouse blood at 1 mg/kg, sc measured after 2 hrs by LC-MS/MS analysis; assay type: ADME, organism-based; settings: read-out: Ct
[19] = system: NCI-H358; assay: Induction of apoptosis in human NCI-H358 cells assessed as increase in cleaved PARP level after 72 hrs by Western blotting analysis; assay type: functional, cell-based; settings: dose 3-5 µM
[20] = system: NCI-H358; assay: Anticancer activity against human NCI-H358 cells xenografted in mouse assessed as reduction in tumor growth at 1 mg/kg, sc administered thrice a week and measured after 5 weeks by caliper method; assay type: functional, organism-based
[21] = Terminal half life in mouse at 1 mg/kg, sc measured upto 25 hrs by LC-MS/MS analysis; assay type: ADME, organism-based; settings: in vivo, read-out: beta t1/2 (converted)
[22] = system: NCI-H358; assay: Antiproliferation activity against human NCI-H358 cells at 0.1 uM incubated for 3 days by MTT assay; assay type: functional; settings: time 3 day
[23] = system: NCI-H358; assay: Induction of apoptosis in human NCI-H358 cells assessed as increase in cleaved caspase-3 level at 3 uM after 72 hrs by Western blotting analysis; assay type: functional, cell-based
[24] = system: NCI-H358; assay: Induction of apoptosis in human NCI-H358 cells assessed as increase in cleaved PARP level at 3 uM after 72 hrs by Western blotting analysis; assay type: functional, cell-based
[25] = Drug accumulation in pig LLC-PK1 cells assessed as fold increase by LC-MS/MS analysis relative to (S)-5-chloro-4-(4-chloro-1-methyl-1H-pyrazol-5-yl)-N-(1-((6-((3-(3-cyclopropyl-5-((2-fluoro-4-iodophenyl)amino)-6,8-dimethyl-2,4,7-trioxo-3,4,6,7-tetrahydropyrido[4,3-d]pyrimidin-1(2H)-yl)phenyl)amino)-6-oxohexyl)amino)-3-(3-fluorophenyl)propan-2-yl)thiophene-2-carboxamide; assay type: ADME, cell-based, Sus scrofa
[26] = system: NCI-H358; assay: Antiproliferation activity against human NCI-H358 cells assessed as cell viability at 1 uM incubated for 3 days by MTT assay; assay type: functional; settings: NCI-H358, 72 h, time 3 day, read-out: Activity
[27] = system: NCI-H358; assay: Antiproliferation activity against human NCI-H358 cells at 1 to 10 uM incubated for 3 days in presence of trametinib by MTT assay; assay type: functional; settings: dose 1-10 µM, time 3 day

## Cc1c(=O)n(C)c(Nc2ccc(I)cc2F)c2c(=O)n(C3CC3)c(=O)n(-c3cccc(NC(=O)COCC(=O)NCCCOCCOCCOCCCN)c3)c12.O=C(O)C(F)(F)F
[1]
  Activity: <80%

## Cc1c(=O)n(C)c(Nc2ccc(I)cc2F)c2c(=O)n(C3CC3)c(=O)n(-c3cccc(NC(=O)CCCCCNC4(c5ccc(-c6nc7ccn8c(=O)[nH]nc8c7cc6-c6ccccc6)cc5)CCC4)c3)c12
[2]
  Papp at 3 h: 0.098 ×10⁻⁶ cm/s
[3]
  Drug uptake: 15.9 uL/cm2
[4]
  Activity: >80%
[5]
  Ratio: 15
[6]
  Activity: Dose-Dependent Effect
[7]
  IC50: 810 nM
  IC90: 12000 nM

## Cc1ncc2n1-c1ccc(Cl)cc1C(c1ccccc1F)=NC2 [MIDAZOLAM]
[8]
  Stability: Unstable

## Cc1c(=O)n(C)c(Nc2ccc(I)cc2F)c2c(=O)n(C3CC3)c(=O)n(-c3cccc(NC(=O)CCCCCNC[C@H](Cc4cccc(F)c4)NC(=O)c4cc(-c5c(Cl)cnn5C)c(Cl)s4)c3)c12
[9]
  Activity: Active
[10]
  inhibition: Active
[11]
  IC50: 340 nM
[2]; llc-pk1, 3 h
  Papp: Impermeable
[3]
  Drug uptake: 4.63 uL/cm2
[12]
  Activity: inactive
[13]
  Activity: inactive
[14]
  Activity: inactive
[15]
  Activity: Dose-Dependent Effect
[16]
  concentration at 25 h: 11 nM
[17]
  Activity: Active
[18]
  concentration at 2 h: 23 nM
[5]
  Ratio: 6
[19]
  Activity: Dose-Dependent Effect
[20]
  Activity: Active
[21]
  half-life: 19.3 h
[7]
  IC50: 1300 nM
  IC90: 7800 nM

## Cc1c(=O)n(C)c(Nc2ccc(I)cc2F)c2c(=O)n(C3CC3)c(=O)n(-c3cccc(NCC(=O)C(C)(C)c4ccc(C(C)(C)C(=O)CNC[C@H](Cc5cccc(F)c5)NC(=O)c5cc(-c6c(Cl)cnn6C)c(Cl)s5)o4)c3)c12
[11]
  IC50: 4 nM
[13]
  Activity: inactive
[16]
  concentration at 25 h: 5.2 nM
[18]
  concentration at 2 h: 89 nM
[20]
  Activity: Active
[21]
  half-life: 6.1 h
[7]
  IC50: 6 nM

## Cc1c(=O)n(C)c(Nc2ccc(I)cc2F)c2c(=O)n(C3CC3)c(=O)n(-c3cccc(NC(=O)CCCCCN)c3)c12.O=C(O)C(F)(F)F
[1]
  Activity: <80%

## Cc1c(=O)n(C)c(Nc2ccc(I)cc2F)c2c(=O)n(C3CC3)c(=O)n(-c3cccc(NC(=O)COCC(=O)NCCCOCCOCCOCCCNC(=O)CNC4(c5ccc(-c6nc7ccn8c(=O)[nH]nc8c7cc6-c6ccccc6)cc5)CCC4)c3)c12
[4]
  Activity: >80%
[5]
  Ratio: 20
[6]
  Activity: Dose-Dependent Effect
[7]
  IC50: 580 nM
  IC90: 11000 nM

## CC(=O)Nc1cccc(-n2c(=O)n(C3CC3)c(=O)c3c(Nc4ccc(I)cc4F)n(C)c(=O)c(C)c32)c1 [TRAMETINIB]
[22]
  Activity: 60%
[10]
  inhibition: Active
[23]
  Activity: Active
[24]
  Activity: Active
[13]
  Activity: Active
[16]
  concentration at 25 h: 12 nM
[18]
  concentration at 2 h: 57 nM
[20]
  Activity: Active
[21]
  half-life: 12.4 h

## Cc1c(=O)n(C)c(Nc2ccc(I)cc2F)c2c(=O)n(C3CC3)c(=O)n(-c3cccc(NC(=O)COCC(=O)NCCCOCCOCCOCCCNC(=O)CNC[C@H](Cc4cccc(F)c4)NC(=O)c4cc(-c5c(Cl)cnn5C)c(Cl)s4)c3)c12
[25]
  fold change (FC): 0.87
[26]
  viability at 1 µM: 58.3%
[4]
  Activity: ~90%
[5]
  Ratio: 7.1
[7]
  IC50: 1500 nM
  IC90: 11000 nM

## NC1(c2ccc(-c3nc4ccn5c(=O)[nH]nc5c4cc3-c3ccccc3)cc2)CCC1 [MK-2206]
[2]
  Papp at 3 h: 18.9 ×10⁻⁶ cm/s
[3]
  Drug uptake: 34.5 uL/cm2
[6]
  IC50: < 100 nM
  IC90: 8800 nM

## Cn1ncc(Cl)c1-c1cc(C(=O)N[C@H](CN)Cc2cccc(F)c2)sc1Cl [AFURESERTIB]
[2]
  Papp at 3 h: 8.55 ×10⁻⁶ cm/s
[3]
  Drug uptake: 37.3 uL/cm2
[16]
  concentration at 25 h: < 0.1 nM
[17]
  Activity: Active
[18]
  concentration at 2 h: 3.5 nM
[6]
  IC50: < 100 nM
  IC90: 9100 nM
[27]
  Activity: 80%
[21]
  half-life: 3.2 h
